Laboratory results taken from patent US20240287138A1, “CYCLIC PEPTIDES FOR INHIBITING TNF RECEPTOR 1 ACTIVITY” (Merck Sharp & Dohme LLC, priority 2023, published 2024).
Numbered stars: 1 amine (or outer) side, 2 acyl side, 3 side chain; on linkers, the order of the positions; unused ones are H or OH. Bridge positions count the residues as written; N and C are the ends. Square brackets hold non-standard residues; d marks the D form. Peptide text beside a SMILES is read from it. Trp(βS-Me,7-OMe) = COc1cccc2c([C@H](C)[C@H](N)C(=O)O)c[nH]c12; Phe(3R-OH) = O=C([C@@H](N[*:1])[C@H](O[*:3])c1ccccc1)[*:2]; Achc(cis-1,4) = O=C([C@H]1CC[C@@H](N[*:1])CC1)[*:2]; Trp(7-Cl) = N[C@@H](Cc1c[nH]c2c(Cl)cccc12)C(=O)O; Phe(4-CONH2) = NC(=O)c1ccc(C[C@H](N)C(=O)O)cc1; Phe(4-COOH) = N[C@@H](Cc1ccc(C(=O)O)cc1)C(=O)O; Trp(7-aza) = N[C@@H](Cc1c[nH]c2ncccc12)C(=O)O; Phe(4-CH2NH2) = NCc1ccc(C[C@H](N)C(=O)O)cc1; Ala(4-thiazolyl) = N[C@@H](Cc1cscn1)C(=O)O; Pip(5R-OH) = O=C(O)[C@@H]1CC[C@@H](O)CN1; X4 = O=C([C@H]1C=C[C@@H](N[*:1])C1)[*:2]; X1 = O=C([C@@H]1CC[C@H](N[*:1])C1)[*:2]; hPhe = N[C@@H](CCc1ccccc1)C(=O)O; 4Pal = N[C@@H](Cc1ccncc1)C(=O)O; NMeE = CN[C@@H](CCC(=O)O)C(=O)O; dHyp = O=C(O)[C@H]1C[C@H](O)CN1; Cit = NC(=O)NCCC[C@H](N)C(=O)O; αMeS = C[C@](N)(CO)C(=O)O; NMeA = CN[C@@H](C)C(=O)O; Nle = CCCC[C@H](N)C(=O)O; Sar = CNCC(=O)O

Key:
[1] = molecular target: T1, human soluble TNFR1 (sTNFR1) (Homo sapiens, UniProt P19438); experiment: Human sTNFR1-peptide displacement assay (LanthaScreen Eu TR-FRET binding assay)
T1 construct: made in house; host or cells: Sf21 (baculovirus)
T1 sequence (P19438 with tags, fused parts or gaps): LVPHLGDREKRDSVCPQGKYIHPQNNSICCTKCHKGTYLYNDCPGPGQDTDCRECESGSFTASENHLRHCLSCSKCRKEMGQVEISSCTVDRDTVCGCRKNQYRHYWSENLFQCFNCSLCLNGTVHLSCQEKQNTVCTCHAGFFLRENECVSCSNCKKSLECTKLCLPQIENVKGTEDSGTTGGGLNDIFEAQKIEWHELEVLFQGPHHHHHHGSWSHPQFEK
Method in brief: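 Readout is the 665/615 nm TR-FRET ratio (Eu anti-His donor, streptavidin-Alexa647 acceptor), normalized to DMSO and saturating displacer, fit by Morrison-based five-parameter logistic for Kd^app. His-tagged sTNFR1 (1-211) prebound to 100 nM biotinylated peptide SEQ ID NO.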

human TNFR2 ECD protein = molecular target: T2, human TNFR2 ECD protein (Homo sapiens, UniProt P20333); experiment: SPR off-target binding (selectivity) to human TNFR2 ECD
T2 construct: HRV 3C protease cleavage site (C); 6His (C, cleaved yes); made in house; host or cells: Sf21 insect cells (baculovirus), secreted
T2 sequence (P20333 23-257): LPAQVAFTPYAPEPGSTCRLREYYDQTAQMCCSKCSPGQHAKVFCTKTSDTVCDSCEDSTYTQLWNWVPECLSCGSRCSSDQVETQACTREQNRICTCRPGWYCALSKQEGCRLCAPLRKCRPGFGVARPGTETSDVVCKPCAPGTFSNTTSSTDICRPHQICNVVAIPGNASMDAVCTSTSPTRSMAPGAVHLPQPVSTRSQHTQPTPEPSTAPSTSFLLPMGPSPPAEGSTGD
Method in brief: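 Read-out: kon, koff and derived affinity from SPR response units. Human TNFR1 and TNFR2 ECD, Avi-tag biotinylated with BirA, captured on a streptavidin surface; peptides injected under laminar flow in HEPES-saline with EDTA, P20 and 2% DMSO.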

Row | Structure (SMILES) | IC50 [1] [nM] | Kd [1] [nM] | Kd (human TNFR2 ECD protein) [nM]
1 | CCCC[C@@H]1NC(=O)[C@H]2CC[C@H](CC2)NC(=O)[C@H]([C@@H](C)c2c[nH]c3c(OC)cccc23)NC(=O)CN(C)C(=O)[C@H](Cc2ccc(O)cc2)NC(=O)[C@H](Cc2ccc(C(=O)O)cc2)NC(=O)[C@](C)(CO)NC(=O)[C@H](Cc2c[nH]c3c(Cl)cccc23)NC(=O)[C@H](Cc2ccncc2)NC(=O)[C@H](CC(N)=O)NC(=O)[C@H](CCC(=O)O)N(C)C(=O)[C@H](Cc2c[nH]c3ccccc23)NC(=O)[C@H](CO)NC(=O)[C@H](Cc2ccc(CN)cc2)NC1=O [SEQ ID NO. 244] (cyclo([4Pal][Trp(7-Cl)][αMeS][Phe(4-COOH)]Y[Sar][Trp(βS-Me,7-OMe)][Achc(cis-1,4)][Nle][Phe(4-CH2NH2)]SW[NMeE]N)) | 0.49 | 0.96 | > 1000
2 | CCCC[C@@H]1NC(=O)[C@@H]2CC[C@@H](C2)NC(=O)[C@H]([C@@H](C)c2c[nH]c3c(OC)cccc23)NC(=O)CN(C)C(=O)[C@H](Cc2ccc(C(=O)O)cc2)NC(=O)[C@H](Cc2ccc(C(N)=O)cc2)NC(=O)[C@](C)(CO)NC(=O)[C@H](Cc2c[nH]c3c(Cl)cccc23)NC(=O)[C@H](Cc2ccc(C(=O)O)cc2)NC(=O)[C@H](CC(N)=O)NC(=O)[C@H]2C[C@H](O)CN2C(=O)[C@H](Cc2c[nH]c3ccccc23)NC(=O)[C@@H]2CC[C@@H](O)CN2C(=O)[C@H](Cc2ccncc2)NC1=O [SEQ ID NO. 247] (cyclo([4Pal][Pip(5R-OH)]W[dHyp]N[Phe(4-COOH)][Trp(7-Cl)][αMeS][Phe(4-CONH2)][Phe(4-COOH)][Sar][Trp(βS-Me,7-OMe)][X1][Nle])) | – | 0.09 | > 1000
3 | C[C@H]1C(=O)N[C@@H](CC(N)=O)C(=O)N[C@@H](Cc2ccncc2)C(=O)N[C@@H](Cc2c[nH]c3ccccc23)C(=O)N[C@@](C)(CO)C(=O)N[C@@H](Cc2ccc(C(=O)O)cc2)C(=O)N[C@@H](Cc2ccc(O)cc2)C(=O)N(C)CC(=O)N[C@@H](Cc2c[nH]c3ccccc23)C(=O)N[C@@H]2C=C[C@@H](C2)C(=O)N[C@@H](CCc2ccccc2)C(=O)N[C@@H](Cc2ccncc2)C(=O)N[C@@H](CO)C(=O)N[C@@H](Cc2c[nH]c3ccccc23)C(=O)N1C [SEQ ID NO. 248] (cyclo([4Pal]SW[NMeA]N[4Pal]W[αMeS][Phe(4-COOH)]Y[Sar]W[X4][hPhe])) | 1.45 | 1.56 | > 1000
4 | CCCC[C@@H]1NC(=O)CSC[C@@H](C(N)=O)NC(=O)[C@H]([C@@H](C)c2c[nH]c3c(OC)cccc23)NC(=O)CN(C)C(=O)[C@H](Cc2ccc(O)cc2)NC(=O)[C@H](Cc2ccc(C(=O)O)cc2)NC(=O)[C@](C)(CO)NC(=O)[C@H](Cc2c[nH]c3c(Cl)cccc23)NC(=O)[C@H](Cc2ccncc2)NC(=O)[C@H](CC(N)=O)NC(=O)[C@H](CCC(=O)O)N(C)C(=O)[C@H](Cc2c[nH]c3ncccc23)NC(=O)[C@H](Cc2cscn2)NC(=O)[C@H](Cc2ccncc2)NC1=O [SEQ ID NO. 253] ({CH2CO}-[Nle][4Pal][Ala(4-thiazolyl)][Trp(7-aza)][NMeE]N[4Pal][Trp(7-Cl)][αMeS][Phe(4-COOH)]Y[Sar][Trp(βS-Me,7-OMe)]C-NH2; thioether N-14) | 0.77 | 1.02 | > 1000
5 | CN1CC(=O)N[C@@H](Cc2c[nH]c3ccccc23)C(=O)N[C@H](C(N)=O)CSCC(=O)N[C@@H](CCCCN)C(=O)N[C@@H](Cc2ccc(O)cc2)C(=O)N[C@@H](CO)C(=O)N[C@@H](Cc2c[nH]c3ccccc23)C(=O)N2CCC[C@@H]2C(=O)N[C@@H](CCCNC(N)=O)C(=O)N[C@@H](Cc2ccncc2)C(=O)N[C@@H](Cc2c[nH]c3ccccc23)C(=O)N[C@@](C)(CO)C(=O)N[C@@H](Cc2ccc(C(=O)O)cc2)C(=O)N[C@@H](Cc2ccc(O)cc2)C1=O [SEQ ID NO. 256] ({CH2CO}-KYSW[dP][Cit][4Pal]W[αMeS][Phe(4-COOH)]Y[Sar]WC-NH2; thioether N-14) | 1.84 | – | > 1000
6 | CCCC[C@@H]1NC(=O)CSC[C@@H](C(N)=O)NC(=O)[C@H]([C@@H](C)c2c[nH]c3c(OC)cccc23)NC(=O)CN(C)C(=O)[C@H](Cc2ccc(O)cc2)NC(=O)[C@H](Cc2ccc(C(=O)O)cc2)NC(=O)[C@](C)(CO)NC(=O)[C@H](Cc2c[nH]c3c(Cl)cccc23)NC(=O)[C@H](Cc2ccncc2)NC(=O)[C@H](CC(N)=O)NC(=O)[C@H](CCC(=O)O)N(C)C(=O)[C@H](Cc2c[nH]c3ncccc23)NC(=O)[C@H](CO)NC(=O)[C@H]([C@H](O)c2ccccc2)NC1=O [SEQ ID NO. 259] ({CH2CO}-[Nle][Phe(3R-OH)]S[Trp(7-aza)][NMeE]N[4Pal][Trp(7-Cl)][αMeS][Phe(4-COOH)]Y[Sar][Trp(βS-Me,7-OMe)]C-NH2; thioether N-14) | – | 0.22 | > 1000
